Test results from US20250275918A1, “LIPID COMPOSITIONS AND METHODS FOR NUCLEIC ACID DELIVERY” (GREENLIGHT BIOSCIENCES, INC., priority 2022, published 2025).

How the values were obtained:
mice = assay: Animal luciferase expression study, intramuscular injection, IVIS imaging; assay type: in vivo; conditions: i.m., 5 μg of mRNA per mouse, organs at 24 h, compared to all GIL-133 formulations
Method: (§1) The formulation was kept at 4° C. until used in the luciferase expression assay to evaluate LNP's potency, and for toxicity using LDH assay in the HeLa and HEK293 cells. LNPs were used in the TNS assay to determine the experimental (apparent) pKa of the ionizable lipid. Hemolysis assay was used to determine the indirect endosomal escape (EE) capability of the LNPs. LNPs were evaluated in vivo for luciferase expression 6 h and 24 h post-dose in mice through i.m. injection at […]. Mice were sacrificed at the end point and then organs were harvested for ex-vivo imaging.
These samples were injected to mice through intramuscular injection at the leg site at a dose of 5 μg of mRNA per mouse. Compositions with control LNP of FIG. 7 were used as positive control. At 6 h and 24 h post injection, the mice were subjected to IVIS imaging system to take the whole-body image. […] The same trend was found in the whole-body imaging results.
At 24 h, the mice were sacrificed, and the main organs include heart, liver, spleen, lung, kidneys, muscle, dLNs and ndLNs were collected and imaged. […] All results are shown in 11A, 11B, 11C, 11D, and 11E.

Hek 293 FT cells = assay: LDH toxicity assay; assay type: cell-based; conditions: two separate batches
Method: GILP-133 was tested in an assay to measure the level of lactate dehydrogenase (LDH), also known as lactic acid dehydrogenase. The LDH assay protocol is based on an enzymatic coupling reaction: LDH released from the cell oxidizes lactate to generate NADH, which then reacts with WST to generate a yellow color. The intensity of the generated color correlates directly with the number of lysed cells. This gives an indication of cytotoxicity, looking at the % of viable cells remaining. In this testing, Hek 293 FT cells were used 10 uL 1% Triton was added to positive control wells and incubated for 5 min. 50 uL cell culture medium was transferred to black 96-well plate. 50 uL LDH assay solution is added and incubated for 10 min at room temperature. Subsequently 50 ul stop solution was added and fluorescence intensity was read using a microplate reader.

[1] = Hemolysis assay (endosomal escape ability of LNPs); assay type: cell-based; conditions: pH 7.4; LNPs formulated with the lipid
Method: as §1
FIG. 6 illustrates endosomal escape ability of LNPs formulated using the ionizable lipids using a hemolysis assay.

CCCCCCCCCCCOC(=O)CCCCCN(CCO)CCCCCCCC(=O)OC(CCCCCCCC)CCCCCCCC [positive control, heptadecan-9-yl 8-[2-hydroxyethyl-(6-oxo-6-undecoxyhexyl)amino]octanoate]
luciferase expression in ndLNs (mice): higher level of luciferase expression
luciferase expression in spleen (mice): higher level of luciferase expression

CCCCCCCCC(CCCCCC)C(=O)OCCCCCCCN(C)[C@@H]1CCCC[C@H]1N(C)CCCCCCCOC(=O)C(CCCCCC)CCCCCCCC (stereo partly drawn) [GILP-133, (((1R,2S)-cyclohexane-1,2-diyl)bis(methylazanediyl))bis(heptane-7,1-diyl)bis(2-hexyldecanoate)]
% cell viability compared to control cationic lipid of FIG. 7 (Hek 293 FT cells): equivalent % cell viability

CCCCCCCCC(CCCCCC)C(=O)OCCCCCCCN(CC)CCCN(CC)CCCCCCCOC(=O)C(CCCCCC)CCCCCCCC (centres unmarked) [GILP-126, (propane-1,3-diylbis(ethylazanediyl))bis(heptane-7,1-diyl)bis(2-hexyldecanoate)]
hemolysis at neutral pH [1]: negligible hemolysis

CCCCCCCCC(CCCCCC)C(=O)OCCCCCCCN(C)CCCN(C)CCCCCCCOC(=O)C(CCCCCC)CCCCCCCC (centres unmarked) [GILP-124, (propane-1,3-diylbis(methylazanediyl))bis(heptane-7,1-diyl)bis(2-hexyldecanoate)]
hemolysis at neutral pH [1]: negligible hemolysis
